Results on three compounds are retold here after patent publication US8076487B2, “Pyridone derivative and herbicide” (Kumiai Chemical Industry Co., Ltd., priority 2006, dated 2011).

Holding throughout (assay type): in vivo
In experiment [1] the test system is velvetleaf (Abutilon theophrasti medicus). Nature of the experiment: Test Example 2: herbicidal effect by soil application to upland field. The settings on record: soil surface spray, upland field soil, 1,000 g active ingredient per hectare, 21st day after application. In a few lines:
(§1)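 Using a small sprayer, we treat the soil surface of pots just after sowing and covering seeds. The aqueous wettable powder supplies 1,000 g a.i./ha in 1,000 L water/ha; after greenhouse growth, injury is scored on day 21 using a standard rating.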

Experiment [2] has as its system barnyardgrass (Echinochloa crus-galli (L.) P. Beauv. var. crus-galli). Described as above. The settings on record: soil surface spray, upland field soil, 1,000 g active ingredient per hectare, 21st day after application. In short, it runs like this: as §1
In experiment [3] the test system is slender amaranth (Amaranthus viridis L.). The description is as above. The following applies: soil surface spray, upland field soil, 1,000 g active ingredient per hectare, 21st day after application. In short, it runs like this:
as §1

Experiment [4] has as its system green foxtail (Setaria viridis (L.) P. Beauv.). The description is as above. The following applies: soil surface spray, upland field soil, 1,000 g active ingredient per hectare, 21st day after application. In short, it runs like this:
as §1

The test system of experiment [5] is velvetleaf (Abutilon theophrasti medicus). Nature of the experiment: Test Example 3: herbicidal effect by application to upland field (foliage treatment). The following applies: foliage treatment, 1,000 g active ingredient per 1 hectare, 14th day after application, greenhouse. In short, it runs like this:
(§2)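 Post-emergence spray at 1,000 g AI/ha of wettable powder in water (1,000 L/ha), onto seedlings grown 2 weeks in greenhouse field-soil pots. Graded day 14.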

Experiment [6] relates to barnyardgrass (Echinochloa crus-galli (L.) P. Beauv. var. crus-galli). The description is as above. The following applies: foliage treatment, 1,000 g active ingredient per 1 hectare, 14th day after application, greenhouse. In a few lines:
as §2

In experiment [7] the test system is slender amaranth (Amaranthus viridis L.). The experiment is described as above. The following applies: foliage treatment, 1,000 g active ingredient per 1 hectare, 14th day after application, greenhouse. In a few lines:
as §2

Experiment [8] concerns green foxtail (Setaria viridis (L.) P. Beauv.). Described as above. The settings on record: foliage treatment, 1,000 g active ingredient per 1 hectare, 14th day after application, greenhouse. In short, it runs like this:
as §2

Experiment [9] relates to Japanese bulrush (Scirpus juncoides Roxb.). Briefly: Test Example 1: herbicidal effect by soil application to paddy field. The settings on record: paddy field soil application; active ingredient 1,000 g per 1 hectare; wettable powder added dropwise to water surface the day after sowing; examined on the 21st day after application. In short, it runs like this: (§3)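 Plants were sown in flooded (3 cm) paddy soil and evaluated for herbicidal effect 21 days after soil application in a greenhouse.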

Experiment [10] concerns early watergrass (Echinochloa oryzicola Vasing). The experiment is described as above. The settings on record: paddy field soil application; active ingredient 1,000 g per 1 hectare; wettable powder added dropwise to water surface the day after sowing; examined on the 21st day after application. In a few lines: as §3
Experiment [11] relates to heartshape false pickerelweed (Monochoria vaginalis (Burm.f.) C.Presl). The experiment is described as above. The settings on record: paddy field soil application; active ingredient 1,000 g per 1 hectare; wettable powder added dropwise to water surface the day after sowing; examined on the 21st day after application. In short, it runs like this:
as §3

Consider `COC(=O)N(C)n1c(C(F)(F)F)ccc(C(=O)C2=C(O)CCCC2=O)c1=O` [I-190], for which the “herbicidal effect (index), Velvetleaf” value in [1] is 5 (90% or more of herbicidal effect and crop phytotoxicity). Further, in [2], the “herbicidal effect (index), Barnyardgrass” value was 5 (90% or more of herbicidal effect and crop phytotoxicity). Moreover, the “herbicidal effect (index), Slender Amaranth” value in [3] is 5 (90% or more of herbicidal effect and crop phytotoxicity). Also, the “herbicidal effect (index), Green Foxtail” value in experiment [4] was 4 (70 to less than 90% of herbicidal effect and crop phytotoxicity). For the same compound, the “herbicidal effect, Velvetleaf” value in experiment [5] is 5 (90% or more of herbicidal effect and crop phytotoxicity). Further, the “herbicidal effect, Barnyardgrass” value in experiment [6] is 5 (90% or more of herbicidal effect and crop phytotoxicity). The “herbicidal effect, Slender Amaranth” value in experiment [7] is 5 (90% or more of herbicidal effect and crop phytotoxicity). Further, in experiment [8], the “herbicidal effect, Green Foxtail” value is 5 (90% or more of herbicidal effect and crop phytotoxicity). Besides, the “herbicidal effect, Scirpus juncoides Roxb.” value in experiment [9] was 5 (90% or more of herbicidal effect and crop phytotoxicity). The “herbicidal effect, Echinochloa oryzicola Vasing” value in experiment [10] is 5 (90% or more of herbicidal effect and crop phytotoxicity). In addition, the “herbicidal effect, Monochoria vaginalis (Burm. f.) C. Presl” value (“herbicidal effect, Monochoria vaginalis” below) in [11] was 5 (90% or more of herbicidal effect and crop phytotoxicity).

In the case of `CC1CC(C)(C)C(O)=C(C(=O)c2ccc(C(F)(F)F)n(C)c2=O)C1=O` (stereo not drawn) [II-5], the “herbicidal effect (index), Velvetleaf” value in [1] is 5 (90% or more of herbicidal effect and crop phytotoxicity). For the same compound, the “herbicidal effect (index), Barnyardgrass” value in [2] was 5 (90% or more of herbicidal effect and crop phytotoxicity). In experiment [3], the “herbicidal effect (index), Slender Amaranth” value was 5 (90% or more of herbicidal effect and crop phytotoxicity). For the same compound, the “herbicidal effect (index), Green Foxtail” value in experiment [4] was 5 (90% or more of herbicidal effect and crop phytotoxicity). The “herbicidal effect, Velvetleaf” value in experiment [5] was 5 (90% or more of herbicidal effect and crop phytotoxicity). In addition, in experiment [6], the “herbicidal effect, Barnyardgrass” value was 4 (70 to less than 90% of herbicidal effect and crop phytotoxicity). For the same compound, the “herbicidal effect, Slender Amaranth” value in experiment [7] was 4 (70 to less than 90% of herbicidal effect and crop phytotoxicity). Moreover, the “herbicidal effect, Green Foxtail” value in [8] was 3 (50 to less than 70% of herbicidal effect and crop phytotoxicity). For the same compound, in [9], the “herbicidal effect, Scirpus juncoides Roxb.” value is 5 (90% or more of herbicidal effect and crop phytotoxicity). Further, the “herbicidal effect, Echinochloa oryzicola Vasing” value in experiment [10] was 5 (90% or more of herbicidal effect and crop phytotoxicity). For the same compound, in experiment [11], the “herbicidal effect, Monochoria vaginalis” value was 5 (90% or more of herbicidal effect and crop phytotoxicity).

As for `CCN(C(=O)OC)n1c(C(F)(F)F)ccc(C(=O)C2=C(O)CCCC2=O)c1=O` [I-191], the “herbicidal effect (index), Velvetleaf” value in experiment [1] is 5 (90% or more of herbicidal effect and crop phytotoxicity). Moreover, the “herbicidal effect (index), Barnyardgrass” value in experiment [2] is 5 (90% or more of herbicidal effect and crop phytotoxicity). Moreover, in [3], the “herbicidal effect (index), Slender Amaranth” value is 5 (90% or more of herbicidal effect and crop phytotoxicity). Besides, the “herbicidal effect (index), Green Foxtail” value in experiment [4] is 5 (90% or more of herbicidal effect and crop phytotoxicity). The “herbicidal effect, Velvetleaf” value in [5] was 5 (90% or more of herbicidal effect and crop phytotoxicity). Further, the “herbicidal effect, Barnyardgrass” value in experiment [6] is 5 (90% or more of herbicidal effect and crop phytotoxicity). In addition, the “herbicidal effect, Slender Amaranth” value in experiment [7] is 5 (90% or more of herbicidal effect and crop phytotoxicity). Further, in experiment [8], the “herbicidal effect, Green Foxtail” value was 5 (90% or more of herbicidal effect and crop phytotoxicity). Besides, the “herbicidal effect, Scirpus juncoides Roxb.” value in experiment [9] was 5 (90% or more of herbicidal effect and crop phytotoxicity). Further, in experiment [10], the “herbicidal effect, Echinochloa oryzicola Vasing” value was 5 (90% or more of herbicidal effect and crop phytotoxicity). For the same compound, the “herbicidal effect, Monochoria vaginalis” value in [11] was 5 (90% or more of herbicidal effect and crop phytotoxicity).
